Reference: ChEMBL document CHEMBL2331150, “Aaptamine derivatives from the Indonesian sponge Aaptos suberitoides” (J Nat Prod, 2013)

Legend:
[1] = system: L5178Y; experiment: Cytotoxic activity against mouse L5178Y cells by MTT assay; format: functional, cell-based
[2] = system: L5178Y; experiment: Cytotoxic activity against mouse L5178Y cells assessed as growth inhibition at 10 ug/ml by MTT assay; format: functional; settings: read-out: GI

Row | Compound | IC50 [1] [µM] | inhibition of growth at 10 µg/mL [2] [%]
1 | COc1cc2ccnc3ccn4cnc1c4c23 | 13.5 | 98.7
2 | COc1cc2ccnc3ccn4c(=O)cnc1c4c23 | – | 0
3 | COc1cc2cc(C(=O)c3ccccc3)nc3c2c(c1O)NC=C3 | 5.5 | 93.7
4 | COC1=Cc2ccnc3ccnc(c23)C1(OC)OC | – | 51.2
5 | COc1nc2c(OC)cc3ccnc4ccn(c1=O)c2c34 | – | 38.6
6 | COC1=Cc2ccnc3c(N)cnc(c23)C1=O | – | 64.4
7 | COc1cc2ccnc3c2c(c1OC)NC=C3 [AAPTAMINE] | 8.3 | 100
